Data from US11467151B1, “Phosphorescence oxygen analyzer and uses thereof” (priority 2021, dated 2022).

Tested on: striatal tissue
Experiment: Striatal cellular respiration (oxygen consumption of striatal fragments, phosphorescence oxygen analyzer)
Type: cell-based, C57BL6 male mice
Settings: for effect on striatal cellular respiration (in words): in vitro, viable striatal tissue; for time over which the inhibitory effects remained relatively stable: with glucose, repeated additions of toxin (FIG. 3B, FIG. 4B)
Experimental: C57BL6 male mice (13 weeks old, about 20 g weight) were housed at 22° C. with 60% humidity and 12-h light-dark cycles. Rodent chow and filtered water were provided ad libitum. The study was approved from the UAE University Animal Research Ethics Committee (Ref. ERA-20196026). Diethyl ether was used for anesthesia.
The studied mice were not treated in any way prior to striatal tissue collection. The skin and skull were cut to expose the whole brain, which was then rapidly removed and placed in a freshly prepared Pd phosphor solution: Phosphate-buffered saline (PBS: 137 mM NaCl, 2.7 mM KCl, 4.3 mM Na2HPO4, and 1.4 mM KH2PO4, pH 7.4), 3.0 μM Pd phosphor, 0.5% fat-free albumin, with and without 5.0 mM glucose. The brain region that contained the striatum was dissected. The specimen weight was determined prior to placing it in the oxygen measuring vial that contained 2.0 mL of the Pd phosphor solution. A small portion of the specimen was stored at −80° C. for Western blot analysis.
For oxygen analysis, our previously described phosphorescence oxygen analyzer was used to monitor oxygen consumption at 25° C. in the studied striatal fragments. In reaction vials sealed from air, oxygen concentration decreased linearly with time (zero-order kinetics); the rate (k, in μM O2 min^−1) was thus the negative of d [O21/dt. The calibration reactions utilized glucose oxidase (D-glucose+O2→D-glucono-δ-lactone+H2O2) and […]. Dissolved oxygen in the solution was also depleted by the addition of glucose oxidase plus […]. Potassium cyanide (KCN, added from a stock prepared in dH2O immediately before use) inhibited respiration, confirming oxygen was consumed in cytochrome oxidase.

Row | Compound | rate of respiration (k) in the presence of MPP+ (1.25 mM MPP+, Pd phosphor solution with 5.0 mM glucose, 25° C., n=3, p=0.048) | effect on striatal cellular respiration (in words) | time over which the inhibitory effects remained relatively stable | rate of respiration (k) in the presence of rotenone (10 μM rotenone, Pd phosphor solution with 5.0 mM glucose, 25° C., mean±SD, n=5, without toxin 0.141 (n=7), P=0.073)
1 | C[n+]1ccc(-c2ccccc2)cc1.[I-] [MPP+, 1-Methyl-4-phenylpyridinium iodide] | 0.077±0.006 μM O2 min^−1 mg^−1 | inhibited | about 300 min | –
2 | C=C(C)[C@H]1Cc2c(ccc3c2O[C@@H]2COc4cc(OC)c(OC)cc4[C@@H]2C3=O)O1 [rotenone, Rotenone] | – | inhibited | about 100 min | 0.092±0.022 μM O2 min^−1 mg^−1
